What all share (type): cell-based
Assay [1] deals with Mock-transfected colon adenocarcinoma LS174T cells. Briefly: Growth of mock-transfected LS174T colon adenocarcinoma cells (cell counting). As to conditions: 100 nM lubiprostone, fresh every 24 hr; cells counted at 0-96 hr; vector-alone (mock) LS174T cells; FIG. 1C. As for the experimental part:
(§1) Approximately half of colon cancers have a low level of NAD^+-linked 15-hydroxyprostaglandin dehydrogenase (NAD^+-15-PGDH). It was tested whether lubiprostone affected the growth of LS174T colon […] cells, which are known to have a low level of 15-PGDH. LS174T cells (ATCC #CL-188) were grown in Eagle's Minimum Essential Medium (ATCC #30-2003) containing 10% Fetal Bovine Serum (ATCC #30-2020) at 37° C. Human PGDH (hPGDH) was expressed in LS174T cells using pCMV6-Entry Vector. Both the human cDNA clone (#RC204160) and the Precision shuttle vector (#PS100001) were from OriGene Technologies, Rockville, Md. LS174T cells were transfected with hPGDH cDNA using Lipofectamine and selected using G418 (200 μg/ml). LS174T cells±hPGDH (+hPGDH or + vector alone, mock) were grown in 35 mm petri dishes (0.5×10^4 cells/dish) in triplicate. Confluent non-transfected cells were plated in 6 well dishes (1×10^4 cells/well) in triplicate. Cultures were grown to 40% confluence and were then treated with either 0.1% EtOH-0.01% DMSO or 100 nM lubiprostone. Media were changed and fresh EtOH-DMSO or lubiprostone was added every 24 hr. Cell growth was monitored by directly counting the cells in a randomly chosen field using a cell cytometer at 0, 24, 48, 72 and 96 hr.

Assay [2] concerns hPGDH-transfected colon adenocarcinoma LS174T cells. In words: Growth of hPGDH-transfected LS174T colon adenocarcinoma cells (cell counting). As to conditions: 100 nM lubiprostone, fresh every 24 hr, cells counted at 0-96 hr, FIG. 1B. Here is the method:
as §1

Assay [3] relates to Non-transfected colon adenocarcinoma LS174T cells. Briefly: Growth of non-transfected LS174T colon adenocarcinoma cells (cell counting). As to conditions: 100 nM lubiprostone, fresh every 24 hr; cells counted at 0, 24, 48, 72 and 96 hr; non-transfected cells (low 15-PGDH); FIG. 1A. As for the experimental part: as §1

This is an account of results in patent US20150099802A1, “SELECTIVE TUMOR TREATMENT” (SUCAMPO AG, priority 2013, published 2015).

With `CCCCC(F)(F)[C@@]1(O)CC[C@H]2[C@@H](CC(=O)[C@@H]2CCCCCCC(=O)O)O1` [lubiprostone, (−)-7-[(2R,4aR,5R,7aR)-2-(1,1-difluoropentyl)-2-hydroxy-6-oxooctahydrocyclopenta[b]pyran-5-yl]heptanoic acid], in assay [1], the “effect of mock transfection on lubiprostone inhibition of cell growth” value is “Mock transfection had no effect”. In addition, the “lubiprostone inhibition of cell growth after transfection with 15-OH PGDH” value in assay [2] is given as “prevented lubiprostone inhibition of cell growth”. For the same compound, the LS174T cell growth result in assay [3] is “slowed or stopped”.
